In US4113766A, “Oxaprostaglandins” (Pfizer Inc., priority 1975, dated 1978):

How the values were obtained:
[1] = tested on: histamine induced bronchospasm; experiment: protection by aerosol against histamine induced bronchospasm in guinea pig; assay type: in vivo; settings: in words, from Table I
Method: (§1) These tests include, among others, a test for effect on isolated smooth muscle from guinea pig ileum and rat uterus, a test for effect on histamine induced bronchospasm in guinea pig, a test for effects on dog blood pressure, a test for induction of diarrhea in mice, and a test for the induction of abortion in early pregnant rats.
^(b) Per cent protection by 100 μg/ml aerosol dose for histamine
induced bronchospasm in the guinea pig.

[2] = tested on: early pregnant rat; experiment: induction of abortion in early pregnant rats; assay type: in vivo
Text: as §1
On the basis of the difference seen in the rat uterus and guinea pig ileum tests with 19-oxaprostaglandin E2, one would expect to have a reduction of the unpleasant gastrointestinal side effects which were encountered when natural PGE2 was employed as an abortion inducer (Lancet, 536, 1971).

[3] = tested on: estrogenized rat uterus; experiment: spasmogenic effect on estrogenized rat uterus in vitro; assay type: tissue-based; settings: in words; rat uterus vs guinea pig ileum, Table I
Text: as §1
^(c) Threshold dose for spasmogenic effect on estrogenized rat uterus

**Q.** For `CCOCCC[C@H](O)/C=C/[C@H]1[C@H](O)CC(=O)[C@@H]1C/C=C\CCCC(=O)O` [19-oxa-ω-homo-PGE2, 9-oxo-11α,15α-dihydroxy-19-oxa-cis-5-trans-13-w-homo-prostadienoic acid], which “bronchodilator selectivity versus natural PGE2” value [1] is on record?
**A.** Its value is “more selective bronchodilator than natural PGE2”.

**Q.** Which “effectiveness relative to natural PGE2 in inducing abortion” value [2] does the source give for `COCCC[C@H](O)/C=C/[C@H]1[C@H](O)CC(=O)[C@@H]1C/C=C\CCCC(=O)O` [19-oxa PGE2, 9-oxo-11α,15α-dihydroxy-19-oxa-cis-5-trans-13-prostadienoic acid] here?
**A.** Its value is “as effective as natural PGE2”.

**Q.** What about the tissue selectivity [3] of the same molecule?
**A.** The tissue selectivity was “advantage of tissue selectivity”.
